Test results taken from article PMC6407576, “Synthesis and evaluation of anticancer, antiphospholipases, antiproteases, and antimetabolic syndrome activities of some 3H-quinazolin-4-one derivatives” (Journal of Enzyme Inhibition and Medicinal Chemistry, 2019).

What was measured:
[1] = molecular target: Apis mellifera bee venom (AmPLA2) (Apis mellifera, UniProt P00630); assay: biochemical
[2] = molecular target: T1, human group X (hG-X) sPLA2 (Homo sapiens, UniProt O15496); assay: In vitro antiphospholipase activity; type: biochemical; details: 20 min preincubation, lecithin substrate, pH 7.6; for IC50: read-out: mean IC50 against hG-X (converted)
T1 sequence (O15496 43-165): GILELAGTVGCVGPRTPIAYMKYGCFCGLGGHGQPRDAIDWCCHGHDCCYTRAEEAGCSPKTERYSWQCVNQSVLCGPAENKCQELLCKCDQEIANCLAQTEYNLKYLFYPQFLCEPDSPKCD

[3] = molecular target: xanthine oxidase (Homo sapiens, UniProt P47989); assay: In vitro inhibition of xanthine oxidase; type: biochemical
Experimental: The xanthine oxidase inhibitory activities of the examined chemical compounds were determined by following the formation of uric acid from xanthine according to the reported method by Bondet and co-workers[46]. […] The results were expressed as IC50 determined from the curve.

[4] = molecular target: T2, human group IIA (hG-IIA) sPLA2 (Homo sapiens, UniProt P14555); assay: In vitro antiphospholipase activity; type: biochemical
T2 sequence (P14555 21-144): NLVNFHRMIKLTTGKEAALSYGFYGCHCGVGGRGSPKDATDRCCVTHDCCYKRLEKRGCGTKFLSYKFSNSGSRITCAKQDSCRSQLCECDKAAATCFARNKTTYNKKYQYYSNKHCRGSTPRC

[5] = molecular target: cathepsin-B (Homo sapiens, UniProt P07858); assay: In vitro antiprotease activity; type: biochemical; details: 15 min preincubation; read-out: mean IC50 against Cathepsin-B (converted)
Experimental: (§1) The inhibitory effects of 21 3H-quinazolin-4-one derivatives on several available therapeutically important proteases such as cathepsin-B, collagenase, elastase, thrombin, and trypsin were investigated. […] The protease inhibitory activity was expressed as inhibition percentage, which was determined by comparison with a control experiment. The results were expressed as IC50 values that were determined from the standard curve. A protease inhibitor cocktail (Sigma) was used as the positive control.

[6] = molecular target: collagenase; assay: In vitro antiprotease activity; type: biochemical; details: 15 min preincubation
Experimental: as §1

[7] = molecular target: thrombin (Homo sapiens, UniProt P00734); assay: In vitro antiprotease activity; type: biochemical; details: 15 min preincubation; read-out: mean IC50 against Thrombin (converted)
Experimental: as §1

[8] = molecular target: elastase; assay: In vitro antiprotease activity; type: biochemical; details: 15 min preincubation
Experimental: as §1

[9] = molecular target: T3, trypsin (Bos taurus, UniProt P00760); assay: In vitro antiprotease activity; type: biochemical; details: 15 min preincubation; read-out: mean IC50 against Trypsin (converted)
T3 construct: gene PRSS1
T3 sequence (P00760 24-246): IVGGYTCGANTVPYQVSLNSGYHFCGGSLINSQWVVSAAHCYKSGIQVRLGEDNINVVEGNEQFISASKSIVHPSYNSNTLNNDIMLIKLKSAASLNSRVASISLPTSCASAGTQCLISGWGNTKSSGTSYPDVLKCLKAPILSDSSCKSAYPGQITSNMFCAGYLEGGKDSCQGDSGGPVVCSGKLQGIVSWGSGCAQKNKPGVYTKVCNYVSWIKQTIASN
Experimental: as §1

[10] = molecular target: T4, human group V (hG-V) sPLA2 (Homo sapiens, UniProt P39877); assay: In vitro antiphospholipase activity; type: biochemical; details: 20 min preincubation, lecithin substrate, pH 7.6; for IC50: read-out: mean IC50 against hG-V (converted)
T4 sequence (P39877 21-138): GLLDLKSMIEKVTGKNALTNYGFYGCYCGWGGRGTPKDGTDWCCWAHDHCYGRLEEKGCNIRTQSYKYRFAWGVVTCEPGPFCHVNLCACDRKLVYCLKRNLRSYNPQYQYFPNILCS

[11] = molecular target: Naja mossambica mossambica sPLA2 (NmPLA2); assay: In vitro antiphospholipase activity; type: biochemical; details: 20 min preincubation, lecithin substrate, pH 7.6

Apis mellifera bee venom (AmPLA2), sequence (P00630 34-167 limits assumed): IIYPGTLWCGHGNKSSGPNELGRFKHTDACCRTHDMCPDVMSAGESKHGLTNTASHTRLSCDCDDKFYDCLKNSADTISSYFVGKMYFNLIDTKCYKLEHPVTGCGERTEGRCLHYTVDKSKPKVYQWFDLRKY
xanthine oxidase, sequence (P47989 whole entry, species assumed): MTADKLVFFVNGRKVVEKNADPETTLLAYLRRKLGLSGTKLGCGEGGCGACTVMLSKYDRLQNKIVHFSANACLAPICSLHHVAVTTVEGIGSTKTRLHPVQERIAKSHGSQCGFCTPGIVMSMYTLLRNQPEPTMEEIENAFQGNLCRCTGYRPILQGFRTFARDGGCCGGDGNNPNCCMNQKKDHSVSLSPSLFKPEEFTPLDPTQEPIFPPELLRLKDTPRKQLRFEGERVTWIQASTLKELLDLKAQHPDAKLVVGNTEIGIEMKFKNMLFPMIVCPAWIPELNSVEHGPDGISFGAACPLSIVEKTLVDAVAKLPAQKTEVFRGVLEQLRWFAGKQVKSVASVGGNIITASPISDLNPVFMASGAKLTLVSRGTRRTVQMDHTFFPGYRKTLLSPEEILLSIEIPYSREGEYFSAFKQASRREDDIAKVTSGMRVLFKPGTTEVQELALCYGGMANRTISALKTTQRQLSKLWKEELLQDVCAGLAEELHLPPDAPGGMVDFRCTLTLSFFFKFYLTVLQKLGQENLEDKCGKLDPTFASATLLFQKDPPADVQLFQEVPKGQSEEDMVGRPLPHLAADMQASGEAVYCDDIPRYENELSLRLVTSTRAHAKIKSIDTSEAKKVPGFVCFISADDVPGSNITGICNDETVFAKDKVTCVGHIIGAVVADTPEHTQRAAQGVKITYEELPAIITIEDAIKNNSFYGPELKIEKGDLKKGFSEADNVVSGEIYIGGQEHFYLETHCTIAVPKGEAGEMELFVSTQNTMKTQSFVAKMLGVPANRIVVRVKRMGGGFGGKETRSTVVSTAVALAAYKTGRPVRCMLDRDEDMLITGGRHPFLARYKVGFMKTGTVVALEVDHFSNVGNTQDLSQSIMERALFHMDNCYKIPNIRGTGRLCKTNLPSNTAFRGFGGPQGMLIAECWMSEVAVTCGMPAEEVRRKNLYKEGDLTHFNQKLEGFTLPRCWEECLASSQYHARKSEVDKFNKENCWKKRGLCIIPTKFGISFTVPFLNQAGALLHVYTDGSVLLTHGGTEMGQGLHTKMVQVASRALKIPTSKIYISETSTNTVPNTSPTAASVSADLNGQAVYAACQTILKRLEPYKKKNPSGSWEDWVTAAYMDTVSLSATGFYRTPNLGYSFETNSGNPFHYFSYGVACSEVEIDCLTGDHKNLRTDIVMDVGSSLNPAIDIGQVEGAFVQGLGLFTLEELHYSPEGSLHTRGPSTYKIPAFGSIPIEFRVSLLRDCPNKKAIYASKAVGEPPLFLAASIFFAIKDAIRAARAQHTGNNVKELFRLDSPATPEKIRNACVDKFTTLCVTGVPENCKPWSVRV

Structure (SMILES) | IC50 [1] [µM] | IC50 [2] [µM] | IC50 [3] [µM] | IC50 [4] [µM] | IC50 [5] [µM] | mean IC50 against Collagenase [6] [µg/mL] | IC50 [7] [µM] | mean IC50 against Elastase [8] [µg/mL] | IC50 [9] [µM] | IC50 [10] [µM] | melting point [°C] | mean IC50 against NmPLA2 [11] [µg/mL] | mean IC50 against hG-X [2] [µg/mL] | mean IC50 against hG-V [10] [µg/mL]
Cc1nc2ccc(Br)cc2c(=O)n1/N=C/c1ccc(-c2ccccn2)cc1 [Compound 8d, (E)-6-Bromo-2-methyl-3-[(4-pyridin-2-yl-benzylidene)-amino]-3H-quinazolin-4-one] | 10.5 | 15.7 | 23.9 | 13.7 | 82.3 | 3.00 ± 0.01 | 37 | 26.00 ± 1.41 | 54.9 | 22.3 | 209 to 210 | 6.55 ± 0.78 |  | 
COc1cc(-n2c(C)nc3ccc(Cl)cc3c2=O)cc(OC)c1OC [Compound 5c, 6 -Chloro-2-methyl-3–(3,4,5-trimethoxy-phenyl)-3H-quinazolin-4-one] | 12.6 | 26.3 | 36 | 57.5 | 34.6 | 21.50 ± 2.12 | 6.93 | 1.75 ± 0.05 | 6.24 | 38.1 | 188 to 190 | 5.15 ± 0.92 |  | 
Cc1nc2ccccc2c(=O)n1/N=C/N(C)C [Compound 12, (E)-N,N-dimethyl-N′-(2-methyl-4-oxo-4H-quinazolin-3-yl)-formamidine] | 122 | 141 | 91.2 | 200 | 119 | 35.50 ± 2.12 | 23.9 | 8.50 ± 2.12 | 56.5 | 150 | 100 to 102 | 35.00 ± 2.83 |  | 
Cc1nc2ccc(Br)cc2c(=O)n1/N=C/c1ccc2ccccc2c1 [Compound 8b, (E)-6-Bromo-2-methyl-3-[(naphthalen-2-ylmethylene)-amino]-3H-quinazolin-4-one] | 18.5 | 33.1 | 25.5 | 42.3 | 54.8 | 4.25 ± 1.06 | 42.1 | 21.50 ± 2.12 | 65 | 54.8 |  | 16.25 ± 1.06 |  | 
CC1(C)CC[C@]2(C(=O)O)CC[C@]3(C)C(=CC[C@@H]4[C@@]5(C)CC[C@H](O)C(C)(C)[C@@H]5CC[C@]43C)[C@@H]2C1 [Oleanolic acid, reference compound] | 9.2 |  |  |  |  |  |  |  |  |  |  | 4.90 ± 0.42 | 7.55 ± 0.64 | 7.50 ± 0.71
Cc1nc2ccccc2c(=O)n1/N=C/c1ccc(C#N)cc1 [Compound 8g, (E)-4-[(2-Methyl-4-oxo-4H-quinazolin-3-ylimino)-methyl]-benzonitrile] | 46.8 | 79.8 | 257 | 95.4 | 25.1 | 17.25 ± 1.77 | 48.6 | 11.00 ± 0.41 | 46.8 | 117 | 222 to 224 | 12.75 ± 1.06 |  | 
Cc1nc2ccccc2c(=O)n1/N=C/c1ccc(-c2ccccc2)cc1 [Compound 8i] | 27.7 | 50.1 | 25 | 45.4 | 10.3 | 15.25 ± 1.06 | 51.6 | 13.50 ± 2.12 | 36.8 | 67.8 |  | 11.00 ± 1.41 |  | 
Cc1cccc(NC(=O)CSc2nc3ccccc3c(=O)n2-c2ccccc2)c1C [Compound 15e] | 21.1 | 17.4 | 98.7 | 34.9 | 3.85 | 4.50 ± 0.71 | 57.8 | 31.50 ± 2.12 | 81.8 | 32.2 |  | 11.00 ± 1.41 |  | 
